Results published in patent US4874795A, “Composition for delivery of orally administered drugs and other substances” (priority 1986, dated 1989).
Read-outs that look alike come from different tables or passages of the source.

Experiments:
[1] = in vivo; cited from earlier work
[2] = cited from earlier work; for biological activity: oral
[3] = cited from earlier work
[4] = rat, in vivo
Method: Tritium labeled (^3 H) vitamin A ([…]; Hoffman LaRoche) was incorporated into a lipid formulation of the following composition: 56 mg. of oleic acid (NuCheck Prep, Inc.); 36 mg. of mono-olein (NuCheck Prep, Inc.) and 6 mg. of lysophosphatidyl choline derived from soy lecithin (A. E. Staley Mfg. Co.). This corresponds to an approximate molar ratio of oleic acid: mono-olein: lysophosphatidyl choline of 2:1:0.1. (The approximate molar percentages of the components were 64.5:32.3:3.2, respectively). The composition was administered to Sprague-Dawley rats (weighing 210-230 gm) by gavage.
Tritium-labeled vitamin A (7mg. or 0.25 millimoles) was administered to Sprague-Dawley rats (as above) in 99 mg. food grade, refined corn oil (A. E. Staley Mfg. Co.).
The concentration of vitamin A equivalents in the plasma was measured by obtaining duplicate 0.05 ml. blood samples from the orbital sinus at 0.5, 1, 2, 3, 4, 6, 8 and 24 hours after administration. The blood was collected in hematocrit tubes and centrifuged; the plasma was transferred into tared scintillation vials and weighed. The radioactivity was determined by liquid scintillation counting.

[5] = Capacity and stability of the composition as a vitamin A delivery means; type: physicochemical; conditions: for Viscosity: cold solution
Method: A composition that included oleic acid, monoglyceride and lysophosphatidyl choline as described in Example I was used for characterizing the capacity of the composition for vitamin A (also as described above). Vitamin A was added in batches to the composition as follows: 1st addition, 0.277 mmoles; 2nd, 0.241; 3rd, 0.276; 4th, 0.262 and 5th, 0.285. […] The millimole ratio of the composition was approximately 2:1:0.1 (oleic acid: mono-olein:lysophosphatidyl choline).
After each addition the approximate amount of time necessary for the complete dissolution of the added vitamin A was recorded, as was the extent of schlierin evident. The time needed to obtain a minimal schlieric effect was generally between 5 minutes and 60 minutes and inversely related to the amount of vitamin A added. After each addition and the achievement of a minimal schlieric effect, the solution was placed in an ice-bath in order to evaluate its stability. The relative viscosity of the cold solution was also recorded. […]

[6] = cited from earlier work; for absorption in mixed micelle versus alone: mono-olein/sodium taurocholate
[7] = cited from earlier work; remark: listed apart in the source
[8] = excess bile salts, cited from earlier work
[9] = oral, cited from earlier work
[10] = 1st addition, total 0.277 mmoles
[11] = 2nd addition, total 0.518 mmoles
[12] = 3rd addition, total 0.794 mmoles
[13] = 4th addition, total 1.056 mmoles
[14] = 5th addition, total 1.341 mmoles

Compound: CCCCCCCCCCCCCCCC(=O)O [palmitic]
- absorbed fatty acid transported in the lymph [1]: 85%
- absorption of fatty acid [1]: 65-70%

Compound: CCCCCCCCCCC(=O)O[C@H]1CC[C@H]2[C@@H]3CCC4=CC(=O)CC[C@]4(C)[C@H]3CC[C@]12C [testosterone undecanoate]
- biological activity ([2]; peanut oil solution versus aqueous micro-crystalline suspension): more biologically active

Compound: CCCCCCCC/C=C\CCCCCCCC(=O)OC[C@@H](O)COP(=O)([O-])OCC[N+](C)(C)C [oleoyl lysophosphatidyl choline]
- increase in triglyceride and phospholipid in lymphatic transported fat ([3]; versus lysophosphatidyl choline from mainly saturated phosphatidyl choline): 100%

Compound: CC(=O)[C@H]1CC[C@H]2[C@@H]3CCC4=CC(=O)CC[C@]4(C)[C@H]3CC[C@]12C [progesterone]
- biological activity ([2]; in combination with cholesterol or its esters): good sustained biological activity

Compound: CCCCCCCCCCCCCC(=O)O [myristic]
- absorbed fatty acid transported in the lymph [1]: 68-80%
- absorption of fatty acid [1]: 80-90%

Compound: CCCCC/C=C\C/C=C\CCCCCCCC(=O)O [linoleic]
- absorption into lymph compared with saturated fatty acids [1]: more rapidly and to a greater extent

Compound: lysophosphatidyl choline
- absorption of lysophosphatidyl choline ([3]; in vivo): rapidly absorbed intact

Compound: Corn Oil
- absorption of vitamin A [4]: complete
- vitamin A absorbed ([4]; po, 180 min): 77%

Compound: CC1=C(/C=C/C(C)=C/C=C/C(C)=C/CO)C(C)(C)CCC1 [Vitamin A]
- Schleirin [5, 10]: none
- Temp. to attain a clear solution [5, 10]: 20 °C
- Time to attain a clear solution ([5]; 1st addition, total 0.277 mmoles, 20° C.): 1 min
- Viscosity [5, 10]: normal
- Schleirin [5, 11]: minimal
- Temp. to attain a clear solution [5, 11]: 20 °C
- Time to attain a clear solution ([5]; 2nd addition, total 0.518 mmoles, 20° C.): 1 min
- Viscosity [5, 11]: normal
- Schleirin [5, 12]: medium
- Temp. to attain a clear solution [5, 12]: 37 °C
- Time to attain a clear solution ([5]; 3rd addition, total 0.794 mmoles, 37° C.): 5 min
- Viscosity [5, 12]: thicker
- Schleirin [5, 13]: medium
- Temp. to attain a clear solution [5, 13]: 37 °C
- Time to attain a clear solution ([5]; 4th addition, total 1.056 mmoles, 37° C.): 10 min
- Viscosity [5, 13]: viscous
- Schleirin [5, 14]: extensive
- Temp. to attain a clear solution [5, 14]: 46 °C
- Time to attain a clear solution ([5]; 5th addition, total 1.341 mmoles, 46° C.): 10 min
- Viscosity [5, 14]: very viscous
- total vitamin A added (capacity of the composition) ([5]; approximately 1 gm of the composition, after 5th addition): 1.341 mmol

Compound: CCCCCCCCCCCC(=O)O [lauric]
- absorbed fatty acid transported in the lymph [1]: 15-55%

Compound: CCCCCCCCCCCCCCCCCC(=O)O [stearic]
- absorbed fatty acid transported in the lymph [1]: 85%
- absorption of fatty acid [1]: 30-45%

Compound: [H]/N=C(/N)N[C@H]1[C@H](O)[C@@H](O)[C@H](O[C@@H]2O[C@@H](C)[C@](O)(C=O)[C@H]2O[C@@H]2O[C@@H](CO)[C@H](O)[C@@H](O)[C@@H]2NC)[C@@H](N/C(N)=N\[H])[C@@H]1O [streptomycin]
- absorption from rectum and large intestine ([6]; in vivo): comparable
- absorption via rectum and large intestine versus comparable dose administered duodenally ([6]; in vivo): markedly greater
- absorption without micelle formulation ([6]; in vivo): poorly absorbed

Compound: O=c1[nH]cc(F)c(=O)[nH]1 [5-fluorouracil]
- absorption in mixed micelle versus alone ([6]; large intestine): greater
- absorption in mixed micelle versus alone ([6]; stomach or small intestine): little difference

Compound: gentamycin
- absorption from rectum and large intestine ([6]; bile salt: mixed lipid micelle): comparable
- absorption via rectum and large intestine versus comparable dose administered duodenally ([6]; mixed lipid micelle, duodenal concentration even four times higher): markedly greater

Compound: C[C@]12CC[C@@H]3c4ccc(O)cc4CC[C@H]3[C@@H]1CC[C@@H]2O [estradiol]
- initial concentrations in plasma of estradiol relative to lymph ([7]; 2:1:2 composition, excess bile salts): greater than those in lymph
- estradiol co-absorbed with lipid and entering circulation via thoracic lymph ([7]; 2:1:2 fatty acids:monoglycerides:bile salts): 25-50%
- estradiol remaining in 2:1:2 micellar composition ([8]; with phosphatidyl choline): 70-75%
- estradiol remaining associated with 2:1:2 micellar composition ([8]; without phosphatidyl choline): about 60%

Compound: COC1=CC(=O)C[C@@H](C)[C@]12Oc1c(Cl)c(OC)cc(OC)c1C2=O [griseofulvin]
- absorption ([2]; co-administered with high fat content meal or in oil and water emulsion): enhanced

Compound: heparin
- absorption from large intestine relative to small intestine ([6]; in vivo): twice
- absorption without micelle formulation ([6]; in vivo): poorly absorbed
- concentration in mixed micelle for potentiation, large intestine relative to small intestine ([6]; in vivo): approximately one-fourth
- effect of mixed micelles on absorption ([6]; in vivo): promotes the absorption

Compound: CCCCCCCCCC(=O)O [decanoic]
- absorbed fatty acid transported in the lymph [1]: 5-20%

Compound: COC1=C(OC)C(=O)C(C/C=C(\C)CC/C=C(\C)CC/C=C(\C)CC/C=C(\C)CC/C=C(\C)CC/C=C(\C)CC/C=C(\C)CC/C=C(\C)CC/C=C(\C)CCC=C(C)C)=C(C)C1=O [ubidecarenone]
- absorption of ubidecarenone ([9]; drug alone): 2.3%
- absorption of ubidecarenone ([9]; in mixture of C12-18 fatty acids and monoglycerides): 8.3%
